Test results as given in patent publication US5789386A, “Fluorine-containing anthracycline derivatives having hydroxyl groups(s) mono- or di-o-aminoalkanoylated in the sugar moiety thereof” (priority 1995, dated 1998).
In brackets after ≈: the same amount, converted by molar mass. Like-named read-outs stand apart in the source and are kept apart here.

What was measured:
[1] = cited from earlier work
[2] = system: Leukemia L-1210 cells; experiment: Antitumor test against leukemia L-1210 in CDF1 mice (T/C, %); type: in vivo, mouse (CDF1); conditions: for % Increase in life-span (T/C, %): 9 days; for percentage (%) of increase in life-span (T/C, %) at maximum: 2.5 mg/kg/day to 5 mg/kg/day; for percentage (%) of increase in life-span (T/C, %) at maximum / development of toxicity (in words): L-1210 mice; for development of toxicity (in words): daunomycin, adriamycin 2.5 mg/kg/day to 5 mg/kg/day
Protocol: Thus, to evaluate the antitumor effects of the new compounds according to the first aspect of this invention against experimental tumors in animals, CDF1 mice (four mice per group) were intraperitoneally transplanted with cells of Leukemia L-1210 at an amount of 1×10^5 cells/mouse. Since an elapsed time of 24 hours from the transplantation of the leukemia cells, a test compound according to this invention was administered intraperitoneally to the mice under test for 9 consecutive days once per day. […] While, mice of the control group (the untreated group) were administered with only physiological saline after the transplantation of the L-1210 cells. During the observation period, the numbers of the surviving mice in the treated group and in the control group were counted, and the mean survival days of mice in the treated group and in the control group were then calculated. From the mean survival day (C) of the untreated mice of the control group and the mean survival day (T) of the treated mice of the treated group, there were evaluated percentages (%) of the increase in the life-span of the treated mice, as T/C %. For a comparison purpose, 7-O-(2,6-dideoxy-2-fluoro-α-L-talopyranosyl)daunomycinone (abbreviation: FT-DM); 7-O-(2,6-dideoxy-2-fluoro-α-L-talopyranosyl)adriamycinone(abbreviation: FT-ADM); and adriamycin were also tested in the same manner as above. Incidentally, the mean survival day of mice of the control group (the untreated group) was amounting to 8 to 9 days, and the mean survival day of mice of the comparative groups having received the administration of adriamycin was varying dependently on the dosage of adriamycin.
Notes; Asterisks (*) indicate that development of toxicity such as
toxicityrelated death or a body weight loss was observed on the
corresponding mice tested.

[3] = system: mouse leukemia, P388 cells; experiment: In vitro growth inhibition of P388 cells, 72 hours; type: cell-based; conditions: P388, 72 h
[4] = system: adriamycin-resistant P388 cells (P388/ADR); experiment: In vitro growth inhibition of adriamycin-resistant P388 cells (P388/ADR), 72 hours; type: cell-based; conditions: Mus musculus, 72 h
[5] = system: experimental tumors; conditions: test animals; background, earlier applications; cited from earlier work
[6] = low dosages which give high antitumor effects; test animals; cited from earlier work

Structure (SMILES) | serious side-effects (in words) ([1]; clinical use, many instances) | % Increase in life-span (T/C, %) ([2]; 0.15 mg/kg/day i.p.) [%] | % Increase in life-span (T/C, %) ([2]; 0.3 mg/kg/day i.p., ">" = at least one of four mice survived 60 days or longer) [%] | % Increase in life-span (T/C, %) ([2]; 0.6 mg/kg/day i.p., ">" = at least one of four mice survived 60 days or longer) [%] | % Increase in life-span (T/C, %) ([2]; 1.25 mg/kg/day i.p., ">" = at least one of four mice survived 60 days or longer) [%] | % Increase in life-span (T/C, %) ([2]; 2.5 mg/kg/day i.p., ">" = at least one of four mice survived 60 days or longer) [%] | percentage (%) of increase in life-span (T/C, %) at maximum [2] | % Increase in life-span (T/C, %) ([2]; 5 mg/kg/day i.p., ">" = at least one of four mice survived 60 days or longer) [%] | development of toxicity (in words) [2] | IC50 [3] [µg/mL] | IC50 [4] [µg/mL] | serious side-effects (in words) ([1]; in vivo) | anticancer or antitumor activity (in words) [5] | development of acute toxicity (in words) [6]
COc1cccc2c1C(=O)c1c(O)c3c(c(O)c1C2=O)C[C@@](O)(C(=O)CO)C[C@@H]3O[C@H]1C[C@H](N)[C@H](O)[C@H](C)O1 [Adriamycin, adriamycin, reference compound] | serious side-effects such as leukocytopenia, alopecia, myocardiopathy and others | 140 | 132 | 208 | 330 | 273 | approximately 330% | 177 | being accompanied by development of toxicity | 0.033 (≈ 0.0607 µM) | 1.3 (≈ 2.39 µM) |  |  | 
COc1cccc2c1C(=O)c1c(O)c3c(c(O)c1C2=O)C[C@@](O)(C(C)=O)C[C@@H]3O[C@H]1C[C@H](N)[C@H](O)[C@H](C)O1 [daunomycin, reference compound] |  |  |  |  |  |  | approximately 330% |  | being accompanied by development of toxicity |  |  | serious side-effects such as leukocytopenia, alopecia, myocardiopathy and others |  | 
COc1cccc2c1C(=O)c1c(O)c3c(c(O)c1C2=O)C[C@@](O)(C(=O)CO)C[C@@H]3O[C@H]1C[C@H](O)[C@H](O)[C@H](C(F)(F)F)O1 [formula (D), 7-O-(2,6-dideoxy-6,6,6-trifluoro-α-L-lyxo-hexopyranosyl)adriamycinone] |  |  |  |  |  |  |  |  |  |  |  |  | high anticancer or antitumor activity | development of acute toxicity does not take place
